Assay results: US20100303932A1 (priority 2009, published 2010)
Several values for one entry are separate records, joined by “and”; a condition that tells them apart may be missing. Equal entries are not always repeated.

How the values were obtained:
[1] = system: mice injected with BoNT/A; details: mouse, in vivo
[2] = system: mice injected with BoNT/A; details: mouse, in vivo; remark: listed apart in the source
[3] = mouse, in vivo
[4] = system: mice injected with BoNT/A; details: mouse, in vivo; remark: listed apart in the source
[5] = system: EDL nerve muscle preparations; design: species or system mouse
[6] = system: Neuro 2a cells; format: cell-based, mouse
[7] = system: TRPV1; design: species or system mouse
[8] = system: motor nerve terminals; design: species or system mouse
[9] = system: Neuro 2a cells; format: cell-based, mouse; remark: listed apart in the source
[10] = system: mice injected with BoNT/A; details: mouse, in vivo; remark: listed apart in the source
[11] = system: mice injected with BoNT/A
[12] = system: EDL nerve muscle preparations

COc1cc(CNC(=O)CCCC/C=C/C(C)C)ccc1O [capsaicin, trans 8-methyl-N-vanillyl-6-noneamide]
Toe spread reflex (TSR) [1]: remained completely normal
Toe spread reflex (TSR) at times later than 24 hours after BoNT/A [1]: continued unaltered
Toe spread reflex (TSR) within 24 hours [1]: remained normal
walk time on rotating rod [2]: remained equivalent to non-treated controls
Body Weight (gram) ± SEM [3]: 32.62 ± 0.56 gram and 33.55 ± 0.51 gram and 38.39 ± 0.93 gram
loss of body mass after BoNT/A [3]: reduced the loss of body mass
recovery of body weight following BoNT/A [3]: significantly enhanced recovery of body weight
Muscle Strength (%) ± SEM [4]: 100%
motor strength [4]: retained normal motor strength
amplitude of endplate currents (EPCs) [5]: reduced this action of BoNT/A
endplate potentials (EPPs) in response to 70 Hz nerve stimulation [5]: did not fail
inhibitory effect of BoNT/A on mean EPC amplitude [5]: reduced the inhibitory effect of BoNT/A
FM1-43 labeling [6]: equivalent to control
protective effect of capsaicin on FM1-43 uptake [6]: did not occur
expression of TRPV1 [7]: did not affect
exocytosis-induced uptake of BoNT/A into motor nerve terminals [8]: prevented
reduction of BoNT/A uptake into motor nerve terminals by capsaicin [8]: prevented by removal of extracellular Ca^2+
BoNT/A uptake into Neuro 2a cells [9]: reduced
reduction of BoNT/A uptake into Neuro 2a cells by capsaicin [9]: prevented by removal of extracellular Ca^2+
cessation of grooming behavior after BoNT/A [10]: reduced
CMAP amplitude compared to BoNT/A alone treated mice ([11]; mouse, in vivo): significantly greater
fold recovery of CMAP from week 1 to week 7 ([11]; mouse, in vivo): approximately 18 fold
muscle strength, body weight, CMAP amplitude and performance on the rotor rod ([11]; mouse, in vivo): normal
CMAP amplitude ([11]; n=4): 4.6±0.92 mV and 6.7±1.24 mV and 7.6±1.12 mV
force generation or amplitude of stimulus evoked endplate currents (EPC) [12]: no effect
mean nerve-evoked twitch tension ([12]; n=4): 500 ± 100 mg

Oc1cc2c(cc1O)CN(C(=S)NCCc1ccc(Cl)cc1)CCC2 [capsazepine]
toe spread 24 hours post-capsaicin [1]: unable to spread toes
EPC amplitude or time course [5]: no effect
amplitude of endplate currents (EPCs) [5]: equivalent to that observed after BoNT/A alone
inhibitory effect of BoNT/A on mean EPC amplitude [5]: the protective action of capsaicin was abolished
